In ChEMBL document CHEMBL1132438, “Heterodimeric tacrine-based acetylcholinesterase inhibitors: investigating ligand-peripheral site interactions” (J Med Chem, 1999):
pIC50: −log10 of the molar value.

Experiments:
Butyrylcholinesterase = Butyrylcholinesterase (Rattus norvegicus, UniProt Q9JKC1)
Description: Inhibition of rat serum butyrylcholinesterase, in the presence of a specific AChE inhibitor; BW284c51

Acetylcholinesterase = target: T1, Acetylcholinesterase (Rattus norvegicus, UniProt P37136); assay: biochemical
T1 sequence (P37136 whole entry): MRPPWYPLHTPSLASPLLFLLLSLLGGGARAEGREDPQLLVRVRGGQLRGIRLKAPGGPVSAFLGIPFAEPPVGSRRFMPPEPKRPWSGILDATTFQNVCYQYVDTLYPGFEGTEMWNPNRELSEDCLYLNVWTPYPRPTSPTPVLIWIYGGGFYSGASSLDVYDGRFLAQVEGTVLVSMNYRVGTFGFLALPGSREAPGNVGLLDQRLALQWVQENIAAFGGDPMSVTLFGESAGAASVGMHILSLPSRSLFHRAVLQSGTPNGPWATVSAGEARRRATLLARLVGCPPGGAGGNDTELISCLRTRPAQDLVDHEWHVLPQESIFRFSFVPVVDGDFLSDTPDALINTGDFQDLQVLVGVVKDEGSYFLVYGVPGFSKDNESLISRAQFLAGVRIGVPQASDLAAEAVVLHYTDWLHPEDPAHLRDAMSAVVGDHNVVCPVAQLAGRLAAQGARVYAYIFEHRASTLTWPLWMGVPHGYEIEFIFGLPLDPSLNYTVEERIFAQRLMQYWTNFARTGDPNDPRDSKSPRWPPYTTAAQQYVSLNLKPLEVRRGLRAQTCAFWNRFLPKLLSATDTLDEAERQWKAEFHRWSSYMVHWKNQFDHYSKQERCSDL
Description: Inhibition of acetylcholinesterase activity in rat cerebral cortex homogenate, in the presence of a specific butyrylcholinesterase (BChE) inhibitor; ethopropazine

Chain of Butyrylcholinesterase (Q9JKC1 whole entry): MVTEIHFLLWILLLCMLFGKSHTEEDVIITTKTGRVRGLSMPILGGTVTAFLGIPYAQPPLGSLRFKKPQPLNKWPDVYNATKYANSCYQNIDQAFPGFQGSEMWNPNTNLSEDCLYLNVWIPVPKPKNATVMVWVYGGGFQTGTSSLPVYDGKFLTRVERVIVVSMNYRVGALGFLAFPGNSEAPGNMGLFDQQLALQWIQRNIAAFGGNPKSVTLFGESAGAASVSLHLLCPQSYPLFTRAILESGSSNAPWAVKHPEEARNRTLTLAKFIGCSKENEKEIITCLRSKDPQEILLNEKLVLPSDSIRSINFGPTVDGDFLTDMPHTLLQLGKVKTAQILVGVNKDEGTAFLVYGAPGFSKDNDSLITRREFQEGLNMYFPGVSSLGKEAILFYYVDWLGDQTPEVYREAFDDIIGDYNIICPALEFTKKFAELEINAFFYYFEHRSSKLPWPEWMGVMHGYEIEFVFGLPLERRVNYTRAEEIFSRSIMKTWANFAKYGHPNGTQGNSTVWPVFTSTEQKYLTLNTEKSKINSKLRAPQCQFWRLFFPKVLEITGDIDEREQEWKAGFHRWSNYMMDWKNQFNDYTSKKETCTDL

Row | Compound | pIC50 (Butyrylcholinesterase) | pIC50 (Acetylcholinesterase)
1 | NCCCCCCCCCNc1c2c(nc3ccccc13)CCCC2 | 6.16 | 6.88
2 | c1ccc2c(NCCCCCCCCCNc3ccncc3)c3c(nc2c1)CCCC3 | 6.70 | 7.08
3 | c1ccc2c(NCCCCCCCNc3c4c(nc5ccccc35)CCCC4)ccnc2c1 | 6.96 | 8.00
4 | c1ccc2c(NCCCCCCCCNc3c4c(nc5ccccc35)CCCC4)ccnc2c1 | 6.90 | 8.06
5 | NCCCCCCCNc1c2c(nc3ccccc13)CCCC2 | 6.45 | 6.50
6 | c1ccc2c(NCCCCCCCCCCNc3ccncc3)c3c(nc2c1)CCCC3 | 6.37 | 6.75
7 | c1ccc2c(NCCCCCCCCNc3ccncc3)c3c(nc2c1)CCCC3 | 6.80 | 7.87
8 | c1ccc2c(NCCCCCCCCCCCCNc3ccncc3)c3c(nc2c1)CCCC3 | 6.42 | 6.58
9 | NCCCCCCCCNc1c2c(nc3ccccc13)CCCC2 | 6.69 | 7.05
10 | Nc1ccnc2ccccc12 [QUINOLIN-4-AMINE] | – | 4.29
11 | NCCCCCCCCCCCCNc1c2c(nc3ccccc13)CCCC2 | 6.10 | 6.74
12 | Nc1ccncc1 [DALFAMPRIDINE] | – | < 3.30
13 | CN(C)CCCCCCCCCCCCNc1c2c(nc3ccccc13)CCCC2 | 6.16 | 6.58
14 | NCCCCCCCCCCNc1c2c(nc3ccccc13)CCCC2 | 6.17 | 6.83
15 | c1ccc2c(NCCCCCCCCCNc3c4c(nc5ccccc35)CCCC4)ccnc2c1 | 6.81 | 7.41
16 | Cc1cccc2c(NCCCCCCCNc3c4c(nc5ccccc35)CCCC4)c3c(nc12)CCCC3 | – | 8.82
17 | CN(C)CCCCCCCCCCNc1c2c(nc3ccccc13)CCCC2 | 6.24 | 7.35
18 | c1ccc2c(NCCCCCCCNc3ccncc3)c3c(nc2c1)CCCC3 | 6.52 | 7.89
19 | CN(C)CCCCCCCCNc1c2c(nc3ccccc13)CCCC2 | 6.77 | 7.33
20 | CN(C)CCCCCCCNc1c2c(nc3ccccc13)CCCC2 | 6.84 | 7.28
21 | CN(C)CCCCCCCCCNc1c2c(nc3ccccc13)CCCC2 | 6.63 | 7.15
22 | Cc1cccc2c(NCCCCCCCCNc3c4c(nc5ccccc35)CCCC4)c3c(nc12)CCCC3 | 6.98 | 8.11
